Tests used:
[1] = system: Nippostrongylus brasiliensis; test: NmU23 treatment of N. brasiliensis infected mice; format: in vivo, mouse
Description: FIGS. 12a-12f: (FIGS. 12a-12c) Mice were infected with N. brasiliensis larvae and treated with NmU23 peptide (8 g/day) or PBS (control). Lungs were analysed at day 2 post-infection. FIG. 12a, ILC2 response in lungs from NmU23 treated mice (n=5) compared to control (n=5). FIG. 12b, Burden of infection in lungs of infected mice treated with PBS (n=5) or NmU23 (n=5). FIG. 12c, Pulmonary hemorrhage in lung of infected mice treated with NmU23 compared to control. (FIGS. 12d-12f) Mice were infected with N. brasiliensis larvae and treated with NmU23 peptide (8 g/day) or PBS (control). Lungs and small intestine were analysed at day 6 post-infection. FIG. 12d, Neutrophils and eosinophils infiltrate in broncho-alveolar lavage (BAL) in infected mice treated with NmU23 versus PBS. Control n=5; NmU23 n=5. FIG. 12e, Mastocytes and Macrophages infiltrate in broncho-alveolar lavage (BAL) in infected mice treated with NmU23 versus PBS. Control n=5; NmU23 n=5. FIG. 12f, Burden of infection in small intestine of infected mice treated with PBS (n=5) or NmU23 (n=5). Error bars show s.e.m. *P<0.05; **P<0.01; ***P<0.001; ****P<0.0001; ns not significant.
For in vitro experiments, purified lung and small intestine lamina propria ILC2s were FBS starved for 2 hours prior to stimulation and cultured in complete RPMI (supplemented with 10% foetal bovine serum (FBS), 1% hepes, sodium pyruvate, glutamine, streptomycin and penicillin) at 37° C. For mRNA analysis, ILC2s were stimulated overnight with recombinant mouse Neuromedin U 23 peptide (NmU23, 100 ng/mL; Phoenix pharmaceuticals). Both NmU23-stimulated and control ILC2s were cultured in the presence of IL-2 and IL-7 (10 ng/mL; Peprotech). ILC2s were lysed using RLT buffer (Qiagen). For cytokine protein analysis, ILC2s were incubated exclusively with brefeldin A (eBioscience) for 12 hours prior to intracellular staining. For in vivo experiments, B6 mice were injected intraperitoneal with NmU23 peptide (2 g/day) during Nippostrongylus brasiliensis infection or with a single dose of NmU23 (20 μg) and analyzed after 8 hours. Control mice were treated with PBS alone.
Nippostrongylus brasiliensis was maintained by monthly passages in Lewis rats as previously described^34. Infective (iL3) worms were kindly provided by Nicola Harris (Lausanne, Switzerland). iL3 larvae were treated for 15 minutes with penicillin/streptomycin (300 U/mL; Thermo Fisher Scientific), gentamicin (1.5 mg/mL; Sigma) and tetracyclin (30 μg/mL; Sigma), washed with PBS and counted under a stereomicroscope. Mice were injected subcutaneously with 500 iL3 in 200 μL of sterile PBS using a 21 G needle. Mice were sacrificed at day 2 post-infection and lungs were collected and analysed.
Lung parasite burden was quantified in finely minced lungs and as previously described^34. Lung were placed on sterile cheesecloth and suspended in a 50 mL tube containing PBS at 37° C. for at least 4 hours. Viable worms that migrate out into the bottom of the tube were counted under a stereomicroscope (steREO Lumar V12; Zeiss).
Mice were sacrificed by cervical dislocation, and caudal lobe of the right lung was harvested, fixed in 10% neutral buffered formalin and processed for paraffin embedding. […] Slides were analyzed by a pathologist blinded to experimental groups and images were acquired in a Leica DM2500 microscope, coupled with a Leica MC 170 HD microscope camera. […]

[2] = system: intestine and lung-derived ILC2s; test: In vitro activation of purified ILC2s with NmU23, type 2 cytokine mRNA by quantitative RT-PCR; format: cell-based, mouse
Description: For in vitro experiments, purified lung and small intestine lamina propria ILC2s were FBS starved for 2 hours prior to stimulation and cultured in complete RPMI (supplemented with 10% foetal bovine serum (FBS), 1% hepes, sodium pyruvate, glutamine, streptomycin and penicillin) at 37° C. For mRNA analysis, ILC2s were stimulated overnight with recombinant mouse Neuromedin U 23 peptide (NmU23, 100 ng/mL; Phoenix pharmaceuticals). Both NmU23-stimulated and control ILC2s were cultured in the presence of IL-2 and IL-7 (10 ng/mL; Peprotech). ILC2s were lysed using RLT buffer (Qiagen). For cytokine protein analysis, ILC2s were incubated exclusively with brefeldin A (eBioscience) for 12 hours prior to intracellular staining. For in vivo experiments, B6 mice were injected intraperitoneal with NmU23 peptide (2 g/day) during Nippostrongylus brasiliensis infection or with a single dose of NmU23 (20 μg) and analyzed after 8 hours. Control mice were treated with PBS alone. Total RNA was extracted using RNeasy micro kit (Qiagen) according to the manufacturer's protocol. RNA concentration was determined using Nanodrop Spectrophotometer (Nanodrop Technologies). Quantitative real-time RT-PCR was performed as previously described^5,8. Hprt1, Gapdh and Eef1a1 were used as housekeeping genes. For TaqMan assays (Applied Biosystems) RNA was retro-transcribed using a High Capacity RNA-to-cDNA Kit (Applied Biosystems), followed by a pre-amplification PCR using TaqMan PreAmp Master Mix (Applied Biosystems). TaqMan Gene Expression Master Mix (Applied Biosystems) was used in real-time PCR. TaqMan Gene Expression Assays (Applied Biosystems) were the following: Hprt1 Mm00446968_m1; Gapdh Mm99999915_g 1; Eef1a1 Mm01973893_g 1; Il5 Mm00439646_m1; Il13 Mm00434204_m1; Areg Mm01354339_m1; 114 Mm00445259_m1; Csf2 Mm01290062_m1; Gata3 Mm00484683_m1; Rora Mm01173766_m1; Nmu Mm00479868_m1; Nmur1 Mm04207994_m1. Real-time PCR analysis was performed using StepOne Real-Time PCR system (Applied Biosystems).

recombinant mouse Neuromedin U 23 peptide (FKAEYQSPSVGQSKGYFLFRPRN; listed as Mus musculus) [NmU23, NMUR1 agonist neuropeptide, Phoenix pharmaceuticals]
lung haemorrhage in N. brasiliensis infected mice ([1]; NmU23 8 g/day vs PBS, day 2 post-infection): reduced lung haemorrhage
ILC2-derived IL-5, IL-13 and Amphiregulin in lungs of N. brasiliensis infected mice ([1]; NmU23 8 g/day vs PBS, day 2 post-infection (FIG. 12a)): increased ILC2-derived IL-5, IL-13 and Amphiregulin
lung parasite burden in N. brasiliensis infected mice ([1]; NmU23 8 g/day vs PBS, day 2 post-infection (FIG. 12b)): decreased
intestinal parasite burden in N. brasiliensis infected mice ([1]; NmU23 8 g/day vs PBS, small intestine, day 6 post-infection (FIG. 12f)): decreased
eosinophil infiltrates in the lung of N. brasiliensis infected mice ([1]; NmU23 intraperitoneal 2 g/day vs PBS, lungs at 48 hours): increased eosinophil infiltrates
innate Il5 and Il13 gene expression in intestinal ILC2 ([2]; NmU23 100 ng/mL in vitro (FIG. 9f)): immediate innate Il5 and Il13 upregulation
expression of type 2 cytokines genes Il5, Il13, Areg and Csf2 in ILC2s ([2]; NmU23 100 ng/mL overnight, with IL-2 and IL-7, intestine and lung ILC2s): prompt and very potent expression
expression of the master type 2 transcription factor Gata3 in ILC2s ([2]; NmU23 100 ng/mL overnight, intestine and lung ILC2s): increased expression
